US9365830B2, “Agents and methods for inhibiting human pluripotent stem cell growth” (VIACYTE, INC., priority 2010, dated 2016)

Legend:
[1] = system: undifferentiated hESCs growing in adherent culture; experiment: EC50 of cytotoxic effect on undifferentiated hESCs in adherent culture, real-time impedance assay; assay type: cell-based, human; conditions: undifferentiated hESCs, adherent culture, real-time impedance; read-out: EC50 concentrations for hES cells (cytotoxic effect)
Method: In summary, the final three (3) candidates identified from both the primary and secondary screens (EXAMPLE 1) and the full screen of the LOPAC1280™ collection (EXAMPLE 2) were Chelerythrine Chloride, Caffeic acid and Ivermectin. FIG. 11 lists the known or inferred mode(s) of action for these three compounds, as well as their structures. EC50 values for the respective cytotoxic effects on undifferentiated hESCs growing in adherent culture were determined using real-time impedance assays.
Depletion of OCT4-positive cells during Stage 1 differentiation was examined using the plating assay described above. Stage 1 differentiations of hES cells were treated from day 1 to 2 with the candidate compounds as described in Example 2 (chelerythrine chloride, caffeic acid and Ivermectin), at their EC50 concentrations for hES cells. Plated untreated and DMSO-treated aggregates were indistinguishable, and both contained discrete clusters of OCT4-positive cells. See FIG. 13A top and bottom panels for a DMSO treated example. The intensity of OCT4-positive staining in differentiating aggregate cell cultures treated with DMSO (control) was equivalent to undifferentiated hES cells.

[2] = system: pancreatic endoderm differentiations of hESCs; experiment: Suspension aggregate differentiation to pancreatic endoderm after Stage 1 treatment, Q-PCR; assay type: cell-based, human; conditions: Stage 1 cultures treated with 0.1 μM Caffeic acid or 0.17 μM Ivermectin
Method: FIGS. 10A-10I are bar graphs showing the relative gene expression levels of OCT4 (FIG. 10A), MIXL (FIG. 10B), HNF1B (FIG. 10C), HNF4A (FIG. 10D), PAX4 (FIG. 10E), NGN3 (FIG. 10F), NKX2.2 (FIG. 10G), NKX6.1 (FIG. 10H), and PTF1A (FIG. 10I) after treatment of suspension aggregate cell cultures at Stages 1 with DMSO (Control), 0.1 μM Caffeic acid or 0.17 μM Ivermectin agents. Untreated control samples were collected at d0 and d1 (left panel). Treated samples were collected at d2, d3, d5, d7, d9, d11, and d13. The columns for each day of the treated samples are (from left to right): DMSO, Caffeic acid, and Ivermectin. The cultures were differentiated to the end of Stage 4. The results from an untreated, pancreatic endoderm differentiation are shown on the right, with samples collected on days 0, 1, 2, 5, 8, 10 and 14.
To further determine the effects of the above compounds (excluding those compounds that induced off-target differentiation), three selected compounds (chelerythrine chloride (FIGS. 5 & 6), caffeic acid and Ivermectin) were screened for effects on later stages of pancreatic differentiation, (such as Stages 2-5). Human ESCs were first differentiated through Stage 1 then to Stages 2 to 5 in suspension aggregate cultures similar to that above. Stage 1 cultures were treated with DMSO, caffeic acid or Ivermectin substantially as described above. Untreated control samples were collected at d0 (hESC) and d1 (FIG. 10, left panel), while treated samples were collected at days 2, 3, 5, 7, 9, 11 and 13 (FIG. 10 d2, d3, d5, d7, d9, d11 and d13 respectively). Gene expression levels in the collected samples were analyzed using Q-PCR and compared to the d0 (hESC) sample as well as qualified pancreatic endoderm (FIG. 10, right panel). The qualified pancreatic endoderm control consisted of about 50% pancreatic endoderm, about 46% endocrine cells and about 4% “other” cells as determined by flow cytometry. Neither caffeic acid nor Ivermectin affected survival, growth and/or proliferation of pancreatic endoderm differentiations. […] Typical gene expression levels for Stages 3, 4 and 5 cells were normal; for example, increased expression of NKX6.1 and PTF1A at Stage 4, pancreatic endoderm (FIGS. 10H and 10I), and of NGN3 and NKX2.2 at Stage 5, endocrine precursor and endocrine cells (FIGS. 10 F and 10G) was observed.

“22, 23-dihydroavermectin B1a+22,23-dihydroavermectin B1b [Ivermectin]” was tested, and the EC50 [1] was 170 nM, the “Typical gene expression levels for Stages 3, 4 and 5 cells (NKX6.1, PTF1A, NGN3, NKX2.2)” value ([2]; Q-PCR d2-d13) was “normal” and the “survival, growth and/or proliferation of pancreatic endoderm differentiations (pancreatic endoderm viability)” value ([2]; differentiated to end of Stage 4) was “did not affect pancreatic endoderm viability”.
